Assay results as given in the supplement of paper PMC10307832.

Assays:
Experiment in all cases: relative viability (nuclei count vs DMSO), 5 days (fraction); higher = more cells survive
[1] = compound: CN(C)C/C=C/C(=O)Nc1cc2c(Nc3ccc(F)c(Cl)c3)ncnc2cc1O[C@H]1CCOC1 [Afatinib] + CC(=O)c1c(C)c2cnc(Nc3ccc(N4CCNCC4)cn3)nc2n(C2CCCC2)c1=O [Palbociclib] (partner 0.5 µM)
Outline: (§1)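 Relative viability was taken as the ratio of nuclei in treated wells to nuclei in vehicle wells. Lung cancer cell lines in 1536-well plates received compounds by pin tool one day after seeding, either one drug alone or a fixed anchor-drug dose plus five library-drug doses (not always all listed) in √10 steps. Nuclei were counted on 4× images after 5 days of treatment, and values are medians of duplicate plates.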

[2] = compound: CN(C)C/C=C/C(=O)Nc1cc2c(Nc3ccc(F)c(Cl)c3)ncnc2cc1O[C@H]1CCOC1 [Afatinib] + Cc1nc(Nc2ncc(C(=O)Nc3c(C)cccc3Cl)s2)cc(N2CCN(CCO)CC2)n1 [Dasatinib] (partner 0.075 µM)
Outline: as §1

[3] = compound: CN(C)C/C=C/C(=O)Nc1cc2c(Nc3ccc(F)c(Cl)c3)ncnc2cc1O[C@H]1CCOC1 [Afatinib] + CC(C)C[C@H](NC(=O)[C@H](Cc1ccccc1)NC(=O)c1cnccn1)B(O)O [Bortezomib] (partner 0.002 µM)
Outline: as §1

[4] = compound: CN(C)C/C=C/C(=O)Nc1cc2c(Nc3ccc(F)c(Cl)c3)ncnc2cc1O[C@H]1CCOC1 [Afatinib] + CCNC(=O)c1noc(-c2cc(C(C)C)c(O)cc2O)c1-c1ccc(CN2CCOCC2)cc1 [Luminespib] (partner 0.01 µM)
Outline: as §1

| Cell Line | relative viability ([1]; first compound 0.005 µM) | relative viability ([1]; first compound 0.01581 µM) | relative viability ([1]; first compound 0.05 µM) | relative viability ([1]; first compound 0.1581 µM) | relative viability ([1]; first compound 0.5 µM) | relative viability ([2]; first compound 0.005 µM) | relative viability ([2]; first compound 0.01581 µM) | relative viability ([2]; first compound 0.05 µM) | relative viability ([2]; first compound 0.1581 µM) | relative viability ([2]; first compound 0.5 µM) | relative viability ([3]; first compound 0.005 µM) | relative viability ([3]; first compound 0.01581 µM) | relative viability ([3]; first compound 0.05 µM) | relative viability ([3]; first compound 0.1581 µM) | relative viability ([3]; first compound 0.5 µM) | relative viability ([4]; first compound 0.005 µM) | relative viability ([4]; first compound 0.01581 µM) | relative viability ([4]; first compound 0.05 µM) | relative viability ([4]; first compound 0.1581 µM) | relative viability ([4]; first compound 0.5 µM) |
| --- | --- | --- | --- | --- | --- | --- | --- | --- | --- | --- | --- | --- | --- | --- | --- | --- | --- | --- | --- | --- |
| HCC-78 | 0.46 | 0.41 | 0.452 | 0.594 | 0.461 | 0.445 | 0.341 | 0.366 | 0.29 | 0.331 | 0.528 | 0.514 | 0.566 | 0.362 | 0.434 | – | – | – | – | – |
| NCI-H2085 | 0.445 | 0.448 | 0.42 | 0.36 | 0.419 | 0.238 | 0.263 | 0.22 | 0.199 | 0.212 | 1.01 | 0.902 | 0.932 | 0.894 | 0.975 | 0.405 | 0.396 | 0.409 | 0.32 | 0.296 |
| PC-14 | 0.0841 | 0.0837 | 0.079 | 0.0664 | 0.0642 | 0.0312 | 0.0316 | 0.0366 | 0.0312 | 0.0453 | 0.303 | 0.256 | 0.268 | 0.222 | 0.249 | 0.152 | 0.115 | 0.19 | 0.126 | 0.144 |
| NCI-H2342 | 0.528 | 0.497 | 0.473 | 0.424 | 0.475 | 0.315 | 0.281 | 0.295 | 0.305 | 0.297 | – | – | – | – | – | 0.713 | 0.648 | 0.699 | 0.627 | 0.583 |
| A-427 | 0.523 | 0.526 | 0.537 | 0.483 | 0.505 | 0.661 | 0.741 | 0.631 | 0.669 | 0.72 | 0.981 | 1.05 | 1 | 1.05 | 1.04 | 1.1 | 0.926 | 1.04 | 0.968 | 0.915 |
| H3255 | 0.267 | 0.269 | 0.289 | 0.26 | 0.258 | 0.202 | 0.195 | 0.264 | 0.326 | 0.242 | 0.252 | 0.194 | 0.221 | 0.184 | 0.231 | 0.461 | 0.234 | 0.303 | 0.336 | 0.269 |
| HCC-44 | 1 | 0.968 | 1.05 | 0.944 | 1.02 | – | – | – | – | – | 1.04 | 0.91 | 0.891 | 0.903 | 1.01 | 0.957 | 1.11 | 1.13 | 1.17 | 1.26 |
| NCI-H1734 | 0.369 | 0.34 | 0.298 | 0.339 | 0.319 | 0.482 | 0.386 | 0.497 | 0.491 | 0.444 | 1.08 | 0.816 | 0.895 | 0.921 | 0.922 | 0.209 | 0.225 | 0.196 | 0.197 | 0.19 |
| NCI-H2228 | 0.884 | 0.774 | 0.705 | 0.749 | 0.744 | 0.619 | 0.56 | 0.55 | 0.41 | 0.634 | 1.19 | 0.812 | 0.984 | – | 0.901 | 0.141 | 0.127 | 0.136 | 0.132 | 0.143 |
| ABC-1 | 0.559 | – | 0.576 | 0.572 | 0.561 | 0.559 | 0.58 | 0.621 | 0.472 | 0.516 | 0.32 | 0.342 | 0.349 | 0.271 | 0.304 | 0.938 | 0.717 | 0.538 | 0.2 | 0.857 |
| COR-L23 | 0.329 | 0.308 | 0.317 | 0.274 | 0.339 | 0.575 | 0.484 | 0.536 | 0.426 | 0.535 | 1.1 | 1.04 | 1.11 | 1.03 | 0.988 | 0.804 | 0.603 | 0.773 | 0.644 | 0.68 |
| NCI-H358 | 0.14 | 0.111 | 0.12 | 0.118 | 0.0955 | 0.125 | 0.111 | 0.113 | 0.156 | 0.128 | – | – | – | – | – | 0.27 | 0.0409 | 0.189 | 0.101 | 0.125 |
| EBC-1 | – | – | – | – | – | – | – | – | – | – | 0.594 | 0.59 | 0.562 | 0.507 | 0.705 | – | – | – | – | – |
| NCI-H596 | – | – | – | – | – | 0.445 | 0.456 | 0.643 | 0.538 | 0.602 | 1.15 | 1.18 | 1.11 | 0.766 | 1.01 | 1.01 | 1 | 0.894 | 0.778 | 0.984 |
| SK-MES-1 | 0.305 | 0.289 | 0.306 | 0.257 | 0.257 | 0.247 | 0.203 | 0.18 | 0.139 | 0.16 | – | – | – | – | – | 0.476 | 0.399 | 0.481 | 0.277 | 0.49 |
| NCI-H1703 | – | – | – | – | – | – | – | – | – | – | 0.414 | 0.299 | 0.343 | 0.288 | 0.281 | – | – | – | – | – |
| NCI-H1944 | 0.287 | 0.33 | 0.272 | 0.206 | 0.237 | 0.211 | 0.205 | 0.21 | 0.185 | 0.186 | – | – | – | – | – | 0.609 | 0.629 | 0.552 | 0.498 | 0.491 |
| NCI-H1563 | – | – | – | – | – | 0.476 | 0.435 | 0.437 | 0.501 | 0.451 | 0.882 | 0.774 | 0.919 | 0.694 | 0.759 | 0.489 | 0.558 | 0.552 | 0.501 | 0.515 |
| NCI-H1395 | 0.592 | 0.572 | 0.625 | 0.591 | 0.606 | 0.453 | 0.408 | 0.415 | 0.404 | 0.376 | – | – | – | – | – | 0.733 | 0.781 | 0.664 | 0.7 | 0.665 |
| NCI-H2170 | 0.389 | 0.357 | 0.275 | 0.139 | 0.116 | 0.352 | 0.281 | 0.157 | 0.131 | 0.155 | – | – | – | – | – | 0.831 | 0.671 | 0.449 | 0.163 | 0.231 |
